Patent US20250248393A1, “METHOD OF RELEASING A SEMIOCHEMICAL IN THE ENVIRONEMENT BY PASSIVE DIFFUSION, SYSTEM AND MEANS, ESPECIALLY STICKS, TO THIS END, AND USES THEREOF” (SIGNS, priority 2024, published 2025)
Each block holds one compound with its values, some of them ahead of it.

What was measured:
Format in all cases: physicochemical
[1] = Mass loss of PCDS diffuser with isopropyl myristate as solvent; conditions: 2% F3 in isopropyl myristate, 170 grams, over 14 days
Procedure: The first step in solvent validation consists in preparing a device comprising a glass bottle containing a 2% solution of a known pheromone (feline facial pheromone F3) in isopropyl myristate (also termed Myristic acid isopropyl ester, IUPAC name Propan-2-yl tetradecanoate). The initial weight of solution placed in the bottle is 170 grams. Monitoring is carried out over 14 days, with weighing at DO, D7 and D14.

[2] = DAP PCDS direct diffusion (SPME-GC/MS); conditions: DAP/PCDS diffuser, 40 mL, 6 capillaries
Procedure: Three diffusers, each containing 40 mL of solution and 6 capillaries, were prepared and diffused. The first points were measured at T=1d, T=2, and T=3d, then every Monday, Wednesday and Friday of each study week until the diffusers no longer contained any solution. To measure the pheromone released into the air at each study time, the diffuser is first weighed (with the sticks) to measure mass loss, then placed in an enclosed area (in this case, an upside-down aquarium) containing a SPME fiber, as shown in FIG. 24.
The fiber is left to diffuse above the diffuser for 2 hours (a time determined in a previous method development as the optimum time for molecules to adsorb to the phase), then analyzed using the gas chromatography/mass spectrometry (GC/MS) technique.
Three diffusers were studied for greater accuracy. The chromatograms obtained are reprocessed using GC/MS Solution software.
For each chromatographic peak, the area is recorded using GC/MS Solution software, then entered into an Excel spreadsheet. Diffusion curves giving the area of the chromatographic peak corresponding to each active ingredient as a function of time are then plotted.
Analyses were carried out by gas chromatography/mass spectrometry (GC/MS). The instrument was a Shimadzu GCMS QP2010SE® equipped with an AOC 6000® autosampler. Separation was carried out on a ZB-FFAP® column (30 m×0.25 mm×0.25 μm, stationary phase: nitroterephthalic acid-modified polyethylene glycol) supplied by Phenomenex. The furnace temperature was initially set at 80° C. for 1 minute, then increased at 10° C./min to 240° C. and maintained at this temperature for 2 minutes. The carrier gas was helium at a flow rate of 1 mL/min. Analysis time is 19 minutes.
The injector is a split/splitless injector used in split mode (temperature: 250° C., split: 50:1). The SPME fiber was injected directly into the injector and left to desorb for 15 minutes.
The separated molecules were detected using a mass spectrometer equipped with an electron impact source (temperature: 200° C.). The analyzer is a simple quadrupole. The interface temperature is 250° C. Data were acquired in FASST mode (Fast automated SCAN/SIM type), i.e. part of the analysis was performed by scanning all ions (SCAN) and part by selecting specific ions (SIM). Target molecules were thus analyzed using ion selection.

[3] = DAP quantification at the top of the capillaries (GC/FID); conditions: top of the rods
Procedure: For this study, three diffusers containing 40 mL of solution and 6 capillaries were used for diffusion. Each week, a diffuser was weighed and the pheromone contained in the liquid solution and on the top of the capillaries was quantified by gas chromatography with flame ionization detector (GC/FID). To quantify the pheromone at the top of the capillaries, approximately 1 cm of the top of the capillaries is cut off with scissors and 0.1 g of the capillary tops is placed in a 25 mL volumetric flask. Acetone is then added up to the beginning of the neck, and the flask is placed in an ultrasonic bath for one hour. Acetone is then topped up to volume, and an aliquot of solution is taken and filtered through a syringe filter for GC/FID analysis. DAP is then quantified by external calibration. For this, five solutions with concentrations ranging from 50% to 150% of the target value (100% being the target value) are prepared to cover a wide concentration range (protocol for preparing the standard range not shown but available). Analyses were carried out using gas chromatography with a flame ionization detector. The instrument was a Shimadzu GC 2025AF® equipped with an AOC20i® autosampler. Separation was carried out on a DB-WAX UI® column (20 m×0.18 mm×0.30 μm, polyethylene glycol (PEG) stationary phase) supplied by Agilent. The oven temperature was initially set at 90° C. and held for 2 minutes, then increased at 20° C./min to 160° C. and held at this temperature for 5 minutes. Finally, the temperature was increased at 20° C./min to 220° C. and held at this temperature for 5 minutes. The carrier gas is helium at a flow rate of 1 mL/min. Analysis time was thus 18.5 minutes. The injector is a split/splitless injector used in split mode (temperature: 230° C., split: 50:1, injected quantity: 1 μL). The detector is a flame ionization detector (FID). Its temperature is 240° C., the hydrogen flow rate is 40 mL/min and the air flow rate is 400 mL/min. A cleaning gas, dinitrogen, is also present at a flow rate of 30 mL/min.

[4] = F3P PCDS indirect diffusion, pheromone remaining in solution (GC/FID)
Procedure: For this study, three diffusers each containing 40 mL of product and 6 capillaries were prepared and diffused. Once a week, on Wednesdays, the amount of pheromone remaining in the solution was monitored by gas chromatography analysis coupled to a flame ionization detector (GC/FID) until no liquid remained. The percentage of pheromone was measured weekly.
Next, the percentage of pheromone was checked by external calibration using a GC/FID calibration range.
Analyses were carried out by gas chromatography coupled to a flame ionization detector. The instrument was a Shimadzu GC 2025® with an AOC20i® autosampler. Separation was performed on an Agilent DB-FFAP® column (30 m×0.25 mm×0.25 μm, stationary phase: nitroterephthalic acid-modified polyethylene glycol). The temperature of the gas chromatography oven was initially maintained at 140° C. for 2 minutes, then increased at 10° C./min to 250° C. and left at this temperature for 3 minutes. The carrier gas was helium at 1 mL/min. Analyses were performed in split mode using a split/splitless injector (temperature: 250° C., split: 1:50).
The detector used was a flame ionization detector. The detector temperature was 250° C. with an air flow rate of 400 mL/min, hydrogen 40 mL/min and nitrogen 30 mL/min.
For this purpose, a calibration range was prepared for each analysis. […]

[5] = Ratios of molecules diffused through the sticks over time
Procedure: Furthermore, as small molecules diffuse more, it happens that they lose intensity over the course of the study, so the ratios are different 24 hours after immersing the sticks in the liquid and 21 days later. Here are the ratios for each pheromone studied at the start of the study and at the end.

[6] = Direct diffusion of rod diffuser (SPME GC/MS); conditions: despecified pheromone 2%
Procedure: This is exactly the same analytical method used for the diffuser block study. The study setup is shown below, also with a two-hour adsorption time-See FIG. 12 showing the set-up. Because of the height of the passive diffusion device, the fiber mounting bracket will not be the same for the block and for the rod device. The distance between the fiber and the device is 10 cm. With the SPME method, results are evaluated by measuring the chromatographic peak area. The data have been plotted to produce a diffusion curve.

[7] = Indirect assay of diffuser blocks (GC/FID, pheromone remaining in the block); conditions: despecified pheromone
Procedure: Analyses were carried out using the gas chromatography (GC) technique with a flame ionization detector (FID), commonly known as GC/FID. The instrument used was the Shimadzu GC2025.® • Injection: Quantity injected: 1 μL, split 50:1, temperature: 230° C. • Separation: DB-WAX column (Agilent), length: 20 m, diameter: 180 μm, film thickness: […] • Carrier gas: Helium (He) • Analysis time: 11.50 min (not including time to return to equilibrium between each analysis) injection). • Detection: FID, temperature: 250° C., flow rates: H2: 40 mL/min, Air: 400 mL/min, Nitrogen (make-up): 30 mL/min. To obtain a representative sample, “cores” were drilled at various positions in the block and then collected. 2.5 g of gel were weighed into a 50 mL volumetric flask and the volume made up to the beginning of the neck of the flask with acetone. The flask was then placed in an ultrasonic bath for one hour until the block was dissolved (a white precipitate was obtained), then acetone was added to the mark. An aliquot of this solution was placed in a syringe fitted with a syringe filter and filtered to obtain a translucent solution. The resulting solution was transferred to a 1.5 mL GC vial for analysis. The assays were carried out using a calibration range.

[8] = Direct diffusion of diffuser blocks (SPME GC/MS); conditions: despecified pheromone 2%, 4 weeks
Procedure: Analyses were carried out using gas chromatography (GC) coupled to a mass spectrometer (MS) detector, a technique commonly referred to as GCMS. The molecules of interest were extracted using the Solid Phase Micro-Extraction (SPME) technique. The instrument used was the following: QP2010SE® from Shimadzu (See FIG. 4).
AOC 6000® automatic feeder • Extraction/SPME fiber: polyacrylate/Fused silica (85 μm), 23 Ga. • Adsorption time: 2 hours (exposure time of fiber above block) (See FIG. 4) • Desorption time: 30 minutes (fiber exposure time in injector) • Fiber-block distance: 2 cm • Injection: split/splitless injector • Temperature: 250° C., split 50 mode. • Separation: ZB-FFAP® column (Phénomenex), length: 30 m, diameter: 250 μm, film thickness: […]
• Carrier gas: Helium (He) • Analysis time: 18 min (not including time to return to equilibrium between each analysis injection • Detection: mass spectrometer with electron impact source/analyzer: quadrupole. • Source temperature: 200° C. • Interface temperature: 250° C. • Scan m/z 50 to m/z 500 • SIM with ions 55, 66 and 74.
Analyses were carried out in triplicate to verify reproducibility of results.
With the SPME method, results are evaluated by measuring the chromatographic peak area. The data have been plotted on diffusion curve (see FIGS. 5 and 6).

[9] = Pheromone migrated to the stick tips (GC/FID); conditions: on stick tips, despecified pheromone
Procedure: In the course of this study, we also measured the amount of pheromone migrating on the sticks, to check that the pheromone had migrated to the top of the sticks, helping it to diffuse into the air. To do this, the test is the same as for the diffuser blocks: 2.5 g of stick tips are cut off and placed in a 50 mL flask, which is then placed in an ultrasonic bath for one hour. The resulting solution is filtered (to avoid injecting particles into the instrument) and placed in a chromatographic vial for analysis.

[10] = Indirect assay of rod diffuser solution (GC/FID); conditions: stick diffuser solution, despecified pheromone
Procedure: Solution integrity was checked at each analysis time. Before each indirect assay, the vial was weighed to visualize mass loss over time. Each vial contained six sticks. • Specifications: the solution must lose mass over time. • Result: Compliant—See FIG. 9 This is the same analytical method as for the diffuser block study, only the sample preparation differs. 1.25 g of solution were weighed into a 25 mL volumetric flask and the volume made up to the mark with acetone. The resulting solution is transferred to a 1.5 mL GC vial for analysis. This is exactly the same calibration range as for the diffuser block study.

[11] = DAP, 24 h after immersion of sticks
[12] = DAP, 21 days after immersion of sticks (empty tank)
[13] = F3P, 24 h after immersion of the sticks
[14] = F3P, 21 days after immersion of sticks (empty tank)

mass loss of the PCDS diffuser [1]: virtually non-existent
Structure (SMILES): CCCCCCCCCCCCCC(=O)OC(C)C [isopropyl myristate, Propan-2-yl tetradecanoate]

direct diffusion over time [2]: decreases slightly over time
Proportion of methyl laurate in the DAP pheromone ([3]; T = 6 j (instead of 2%)): laurate: 1.2%
Proportion of methyl laurate in the DAP pheromone ([3]; T = 22 j (instead of 2%)): laurate: 0.4%
Proportion of methyl laurate in the DAP pheromone ([3]; T = 13 d (instead of 2%)): laurate: 0.5%
quantities found in the solution [4]: very low
ratio of molecules diffused through the sticks [5, 11]: 51 % (w/w)
ratio of molecules diffused through the sticks [5, 12]: 37 % (w/w)
ratio of molecules diffused through the sticks [5, 13]: 20 % (w/w)
ratio of molecules diffused through the sticks [5, 14]: 17.5 % (w/w)
Structure (SMILES): CCCCCCCCCCCC(=O)OC [methyl laurate, methyl dodecanoate]

direct diffusion over time [2]: stable over time
% of the active ingredient in the pheromone ([7]; day 0): 12%
% of the active ingredient in the pheromone ([7]; day 7): 11.9%
% of the active ingredient in the pheromone ([7]; day 14): 11.9%
% of the active ingredient in the pheromone ([7]; day 21): 11.7%
% of the active ingredient in the pheromone ([7]; day 28): 11.7%
direct diffusion from the diffuser block [8]: diffuse better
% of the active ingredient in the pheromone ([9]; day 7): 9.2%
% of the active ingredient in the pheromone ([9]; day 14): 8.2%
% of the active ingredient in the pheromone ([9]; day 21): 6.4%
% of the active ingredient in the pheromone ([10]; day 0): 11.9%
% of the active ingredient in the pheromone ([10]; day 7): 11.9%
% of the active ingredient in the pheromone ([10]; day 14): 11.9%
% of the active ingredient in the pheromone ([10]; day 21): 11.4%
ratio of molecules diffused through the sticks [5, 11]: 27 % (w/w)
ratio of molecules diffused through the sticks [5, 12]: 33.5 % (w/w)
ratio of molecules diffused through the sticks ([5]; Despecified pheromone (Core), 5 days after immersion of the sticks): 76 % (w/w)
ratio of molecules diffused through the sticks ([5]; Despecified pheromone (Core), 21 days after immersion of sticks (empty tank)): 70 % (w/w)
ratio of molecules diffused through the sticks [5, 13]: 4 % (w/w)
ratio of molecules diffused through the sticks [5, 14]: 8.7 % (w/w)
Structure (SMILES): CCCCCCCCCCCCCC(=O)OC [methyl myristate, methyl tetradecanoate]
direct diffusion, rod system compared with diffuser block [6]: better in the blocks than in the rod system
